Results from ChEMBL document CHEMBL1155212, “Discovery and structure-activity relationships of a novel class of quinazoline glucokinase activators” (Bioorg Med Chem Lett, 2009).

What was measured:
physchem = details: buffer, pH 7.4
[1] = AUC (0 to infinity) in Sprague-Dawley rat at 1 mg/kg, iv; type: ADME, organism-based; set-up: time infinity, dose 1 mg/kg, route intravenous; details: plasma
[2] = Volume of distribution at steady state in Sprague-Dawley rat at 1 mg/kg, iv; type: ADME, organism-based; set-up: dose 1 mg/kg, route intravenous; details: in vivo, read-out: Vdss
[3] = Tmax in Sprague-Dawley rat at 3 mg/kg; type: ADME, organism-based; set-up: dose 3 mg/kg; details: in vivo
[4] = Plasma clearance in Sprague-Dawley rat at 1 mg/kg, iv; type: ADME, organism-based; set-up: dose 1 mg/kg, route intravenous
[5] = Half life in Sprague-Dawley rat at 1 mg/kg, iv; type: ADME, organism-based; set-up: dose 1 mg/kg, route intravenous; details: in vivo
[6] = Oral bioavailability in Sprague-Dawley rat at 3 mg/kg; type: ADME, organism-based; details: in vivo
[7] = AUC (0 to infinity) in Sprague-Dawley rat at 3 mg/kg; type: ADME, organism-based; set-up: dose 3 mg/kg, time infinity; details: plasma
[8] = Cmax in Sprague-Dawley rat at 3 mg/kg; type: ADME, organism-based; set-up: dose 3 mg/kg; details: in vivo

SMILES | logD (physchem) | also measured
Cn1ccc(Nc2ncnc3ccc(Oc4ncccc4F)cc23)n1 | 2.4 | 
Cn1ccc(Nc2ncnc3ccc(Oc4ncccc4Br)cc23)n1 | 3.4 | 
Cc1csc(Nc2ncnc3ccc(Oc4ccc(F)cc4)cc23)n1 | 5.8 | 
Cc1csc(Nc2ncnc3ccc(Oc4ccccc4F)cc23)n1 | 5.8 | 
Cc1csc(Nc2ncnc3ccc(Oc4ccccc4S(C)(=O)=O)cc23)n1 | 4.3 | 
Cc1nsc(Nc2ncnc3ccc(Oc4c(F)cccc4S(C)(=O)=O)cc23)n1 | 3.1 | 
Cn1ccc(Nc2ncnc3ccc(Oc4ccncn4)cc23)n1 | 1.7 | 
Cn1ccc(Nc2ncnc3ccc(Oc4ncccc4CO)cc23)n1 | 1.7 | 
Cn1ccc(Nc2ncnc3ccc(Oc4ccccn4)cc23)n1 | 2.1 | 
CN(C)C(=O)c1cccnc1Oc1ccc2ncnc(Nc3ccn(C)n3)c2c1 | 1.4 | 

Continued, in another order:

logD (physchem) | SMILES | also measured
3.7 | Cn1ccc(Nc2ncnc3ccc(Oc4c(F)cccc4F)cc23)n1 | 
2.5 | Cc1cnc(Nc2ncnc3ccc(Oc4c(F)cccc4S(C)(=O)=O)cc23)cn1 | 
2.2 | CS(=O)(=O)c1cccc(F)c1Oc1ccc2ncnc(Nc3cnccn3)c2c1 | 
1.9 | Cn1ccc(Nc2ncnc3ccc(Oc4ccccc4S(C)(=O)=O)cc23)n1 | 
3.6 | CS(=O)(=O)c1cccc(F)c1Oc1ccc2ncnc(Nc3ccccn3)c2c1 | 
1.8 | CS(=O)(=O)c1cccc(F)c1Oc1ccc2ncnc(Nc3cc[nH]n3)c2c1 | 
3.6 | Cn1ccc(Nc2ncnc3ccc(Oc4ccc(F)cc4F)cc23)n1 | 
3.4 | Cc1cccc(C#N)c1Oc1ccc2ncnc(Nc3ccn(C)n3)c2c1 | 
2.4 | CCn1ccc(Nc2ncnc3ccc(Oc4c(F)cccc4S(C)(=O)=O)cc23)n1 | 
2 | CS(=O)(=O)c1cccc(F)c1Oc1ccc2ncnc(Nc3cccnn3)c2c1 | 
2.9 | Cn1ccc(Nc2ncnc3ccc(Oc4ncccc4Cl)cc23)n1 | 
1.9 | Cn1ccc(Nc2ncnc3ccc(Oc4c(F)cccc4S(C)(=O)=O)cc23)n1 | AUC(0-inf) [1]: 6.3 µM·h; Vd [2]: 0.5 L/kg; Tmax [3]: 0.9 h; clearance [4]: 6.8 mL/min/kg; half-life [5]: 1.3 h; bioavailability [6]: 71%; AUC(0-inf) [7]: 13.3 µM·h; Cmax [8]: 5.8 µM
2.1 | Cc1cccc(S(C)(=O)=O)c1Oc1ccc2ncnc(Nc3ccn(C)n3)c2c1 | 
2.3 | Cn1ccc(Nc2ncnc3ccc(Oc4c(Cl)cccc4S(C)(=O)=O)cc23)n1 | 
